Measured values reported in ChEMBL document CHEMBL6092147, “Design of inhibitors of SARS-CoV-2 papain-like protease deriving from GRL0617: Structure-activity relationships” (Bioorg Med Chem, 2024).

Tests used:
[1] = target: T1, Replicase polyprotein 1ab (Severe acute respiratory syndrome coronavirus 2, UniProt P0DTD1); experiment: Inhibition of SARS-CoV-2 papain-like protease (PLpro) by enzymatic assay
[2] = target: T1, Replicase polyprotein 1ab; experiment: Inhibition of SARS-CoV-2 Main protease using Dabcyl-KLSAVLQSGFRKM-Edans-NH2 as substrate incubated for 30 mins by FRET based enzymatic assay
[3] = target: T1, Replicase polyprotein 1ab; experiment: Inhibition of SARS-CoV-2 Main protease extracted from Escherichia coli BL21 (DE3) cells measured for 60 mins by FRET based analysis

SMILES	IC50 [1] [µM]	IC50 [2] [µM]	further results
CCn1ccc(-c2cc(-c3ccn(CC)n3)cc([C@@H](C)NC(=O)c3cc(OCCN(C)C)ccc3C)c2)n1	0.2		
Cc1ccc(OCCN(C)C)cc1C(=O)N[C@H](C)c1cc(-c2cnn(CCN(C)C)c2)cc(-c2cccs2)c1		0.11	
Cc1ccc(OCCN(C)C)cc1C(=O)N[C@H](C)c1cc(-c2cnn(CCO)c2)cc(-c2ccnn2C)c1		0.14	
Cc1ccc(NC[C@H]2CCCN2C)cc1C(=O)N[C@H](C)c1cccc2ccccc12			IC50 [3]: 1.5 µM
Cc1ccc(NC[C@H]2CCCCN2C)cc1C(=O)N[C@H](C)c1cccc2ccccc12			IC50 [3]: 1.5 µM
CCn1ccc(-c2cc(-c3cnn(COC)c3)cc([C@@H](C)NC(=O)c3cc(OCCN(C)C)ccc3C)c2)n1	0.24		
Cc1ccc(OCCN(C)C)cc1C(=O)N[C@H](C)c1cc(-c2cnn(C(F)F)c2)cc(-c2cnn(C(F)F)c2)c1	0.17		
Cc1ccc(OCCN(C)C)cc1C(=O)N[C@H](C)c1cc(-c2cnn(C)c2)cc(-c2cnn(CC(N)=O)c2)c1		0.07	
CCn1ccc(-c2cc(-c3cnn(C4COC4)c3)cc([C@@H](C)NC(=O)c3cc(OCCN(C)C)ccc3C)c2)n1	0.26		
Cc1ccc(OCCN(C)C)cc1C(=O)N[C@H](C)c1cc(-c2cnn(CCO)c2)cc(-c2cccs2)c1		0.11	
Cc1ccc(NCC2CNC2)cc1C(=O)N[C@H](C)c1cccc2ccccc12			IC50 [3]: 1 µM
Cc1ccc(NC[C@@]2(C)CCCN2)cc1C(=O)N[C@H](C)c1cccc2ccccc12			IC50 [3]: 1.1 µM
Cc1ccc(OCCN(C)C)cc1C(=O)N[C@H](C)c1cc(-c2cnn(CCO)c2)cc(-c2ccc(CN3CCCC3)s2)c1		0.07	
Cc1ccc(OCCN(C)C)cc1C(=O)N[C@H](C)c1cc(-c2cnn(CC3CCOCC3)c2)cc(-c2ccn(C)n2)c1		0.08	
Cc1ccc(OCCN(C)C)cc1C(=O)N[C@H](C)c1cc(-c2ccc3cnn(C)c3c2)cc(-c2cnn(C)c2)c1		0.13	
COc1ncc(-c2cc(-c3cnc(OC)nc3)cc([C@@H](C)NC(=O)c3cc(OCCN(C)C)ccc3C)c2)cn1	1.95		
Cc1ccc(OCCN(C)C)cc1C(=O)N[C@H](C)c1cc(-c2cnn(C(C)C)c2)cc(-c2cnn(C(F)F)c2)c1		0.16	
Cc1ccc(OCCN(C)C)cc1C(=O)N[C@H](C)c1cc(-c2cnn(CC(N)=O)c2)cc(-c2cccs2)c1		0.08	
Cc1ccc(NC(=O)NCCN)cc1C(=O)N[C@H](C)c1cccc2ccccc12			IC50 [3]: 1.1 µM
Cc1ccc(OCCN(C)C)cc1C(=O)N[C@H](C)c1cc(-c2cnn(C)c2)cc(-c2cnn(CC3CCOCC3)c2)c1		0.07	
Cc1ccc(OCCN(C)C)cc1C(=O)N[C@H](C)c1cc(-c2ccn(C)n2)cc(-c2ccn(C3CC3)n2)c1		0.12	
Cc1ccc(OCCN(C)C)cc1C(=O)N[C@H](C)c1cc(-c2ccc(N3CCOCC3)nc2)cc(-c2cnn(C)c2)c1		0.08	
Cc1ccc(OCCN(C)C)cc1C(=O)N[C@H](C)c1cc(-c2cnn(CCO)c2)cc(-c2cnn(CCO)c2)c1	0.16		
Cc1ccc(OCCN(C)C)cc1C(=O)N[C@H](C)c1cc(-c2ccc(O)cc2)cc(-c2ccc(O)cc2)c1	0.16		

SMILES	IC50 [1] [µM]	IC50 [2] [µM]	further results
Cc1ccc(-c2cc(-c3ccc(C)s3)cc([C@@H](C)NC(=O)c3cc(OCCN(C)C)ccc3C)c2)s1	0.14		
COCCn1cc(-c2cc(-c3cnn(CC(N)=O)c3)cc([C@@H](C)NC(=O)c3cc(OCCN(C)C)ccc3C)c2)cn1		0.09	
Cc1ccc(NC(=O)CN2CCCC2)cc1C(=O)N[C@H](C)c1cccc2ccccc12			IC50 [3]: 1.1 µM
CCn1ccc(-c2cc(-c3cnn(CC(F)(F)F)c3)cc([C@@H](C)NC(=O)c3cc(OCCN(C)C)ccc3C)c2)n1	0.27		
Cc1ccc(NC2CCN(C[C@@H]3CCCN3)CC2)cc1C(=O)N[C@H](C)c1cccc2ccccc12			IC50 [3]: 1 µM
Cc1ccc(OCCN(C)C)cc1C(=O)N[C@H](C)c1cc(-c2cn[nH]c2)cc(-c2cccs2)c1		0.08	
COCCn1cc(-c2cc(-c3cnn(CCOC)c3)cc([C@@H](C)NC(=O)c3cc(OCCN(C)C)ccc3C)c2)cn1	0.18		
Cc1ccc(OCCN(C)C)cc1C(=O)N[C@H](C)c1cc(-c2cnn(CC(F)(F)F)c2)cc(-c2cccs2)c1		0.07	
COCCn1cc(-c2cc(-c3cnn(CCO)c3)cc([C@@H](C)NC(=O)c3cc(OCCN(C)C)ccc3C)c2)cn1		0.1	
Cc1ccc(OCCN(C)C)cc1C(=O)N[C@H](C)c1cc(-c2cnn(C)c2)cc(-c2ccc(CN3CCOCC3)o2)c1		0.12	
Cc1ccc(OCCN(C)C)cc1C(=O)N[C@H](C)c1cc(-c2cnn(C(F)F)c2)cc(-c2cnn(C3CC3)c2)c1		0.09	
Cc1ccc(NC[C@]2(C)CCCN2)cc1C(=O)N[C@H](C)c1cccc2ccccc12			IC50 [3]: 1.2 µM
CC(=O)n1cc(-c2cc(-c3cnn(C)c3)cc([C@@H](C)NC(=O)c3cc(OCCN(C)C)ccc3C)c2)cn1		0.11	
CCn1ccc(-c2cc(-c3ccn(CC(F)F)n3)cc([C@@H](C)NC(=O)c3cc(OCCN(C)C)ccc3C)c2)n1	0.22		
CCn1ccc(-c2cc(-c3cnn(C(F)F)c3)cc([C@@H](C)NC(=O)c3cc(OCCN(C)C)ccc3C)c2)n1	0.32		
Cc1ccc(OCCN(C)C)cc1C(=O)N[C@H](C)c1cc(-c2c(C)noc2C)cc(-c2c(C)noc2C)c1	0.4		
Cc1ccc(OCCN(C)C)cc1C(=O)N[C@H](C)c1cc(-c2ccc(N3CCOCC3)nc2)cc(-c2cccs2)c1		0.09	
Cc1ccc(NC[C@@H](N)CNC[C@H]2CCCN2)cc1C(=O)N[C@H](C)c1cccc2ccccc12			IC50 [3]: 1.1 µM
Cc1ccc(OCCN(C)C)cc1C(=O)N[C@H](C)c1cc(-c2ccoc2)cc(-c2ccoc2)c1	0.08		
CCn1ccc(-c2cc(-c3cnn(C(C)C)c3)cc([C@@H](C)NC(=O)c3cc(OCCN(C)C)ccc3C)c2)n1	0.2		
Cc1ccc(NC[C@@H]2CCCCN2C)cc1C(=O)N[C@H](C)c1cccc2ccccc12			IC50 [3]: 1.4 µM
COCCn1cc(-c2cc(-c3cnn(C(F)F)c3)cc([C@@H](C)NC(=O)c3cc(OCCN(C)C)ccc3C)c2)cn1		0.11	
Cc1ccc(OCCN(C)C)cc1C(=O)N[C@H](C)c1cc(-c2cnn(CCO)c2)cc(-c2cnn(CCN(C)C)c2)c1		0.14	
COCCn1cc(-c2cc(-c3cnn(CC(F)F)c3)cc([C@@H](C)NC(=O)c3cc(OCCN(C)C)ccc3C)c2)cn1		0.2	

SMILES	IC50 [1] [µM]	IC50 [2] [µM]	further results
COCCn1cc(-c2cc(-c3cncs3)cc([C@@H](C)NC(=O)c3cc(OCCN(C)C)ccc3C)c2)cn1		0.11	
Cc1ccc(NC(=O)[C@H]2CCCN2)cc1C(=O)N[C@H](C)c1cccc2ccccc12			IC50 [3]: 1.4 µM
Cc1ccc(OCCN(C)C)cc1C(=O)N[C@H](C)c1cc(-c2cnn(C(C)C)c2)cc(-c2ccn(C)n2)c1		0.11	
Cc1ccc(OCCN(C)C)cc1C(=O)N[C@H](C)c1cc(-c2ccn(C)n2)cc(-c2ccn(C)n2)c1		0.14	
Cc1ccc(OCCN(C)C)cc1C(=O)N[C@H](C)c1cc(-c2cncs2)cc(-c2cncs2)c1	0.1		
COCCn1cc(-c2cc(-c3cccs3)cc([C@@H](C)NC(=O)c3cc(OCCN(C)C)ccc3C)c2)cn1		0.11	
Cc1ccc(OCCN(C)C)cc1C(=O)N[C@H](C)c1cc(-c2ccnn2C)cc(-c2ccnn2C)c1	0.46		
CCn1ccc(-c2cc(-c3cnn(CC(F)F)c3)cc([C@@H](C)NC(=O)c3cc(OCCN(C)C)ccc3C)c2)n1	0.23		
CCn1nccc1-c1cc(-c2ccnn2CC)cc([C@@H](C)NC(=O)c2cc(OCCN(C)C)ccc2C)c1	0.44		
Cc1ccc(OCCN(C)C)cc1C(=O)N[C@H](C)c1cc(-c2cnn(C(F)F)c2)cc(-c2ccn(C)n2)c1		0.09	
Cc1ccc(OCCN(C)C)cc1C(=O)N[C@H](C)c1cc(-c2ccsc2)cc(-c2ccsc2)c1	0.1		
Cc1ccc(OCCN(C)C)cc1C(=O)N[C@H](C)c1cc(-c2cnn(C(F)F)c2)cc(-c2cccs2)c1		0.07	
Cc1ccc(OCCN(C)C)cc1C(=O)N[C@H](C)c1cc(-c2cnn(C)c2)cc(-c2cnn(CCO)c2)c1		0.09	
COCCn1cc(-c2cc(-c3ccn(C)n3)cc([C@@H](C)NC(=O)c3cc(OCCN(C)C)ccc3C)c2)cn1		0.09	
Cc1ccc(OCCN(C)C)cc1C(=O)N[C@H](C)c1cc(-c2ccco2)cc(-c2ccco2)c1	0.2		
Cc1ccc(OCCN(C)C)cc1C(=O)N[C@H](C)c1cc(-c2cnn(CCO)c2)cc(-c2cnn(C(F)F)c2)c1		0.09	
CCn1ccc(-c2cc(-c3ccn(C(F)F)n3)cc([C@@H](C)NC(=O)c3cc(OCCN(C)C)ccc3C)c2)n1	0.4		
CCn1ccc(-c2cc(-c3ccn(C)n3)cc([C@@H](C)NC(=O)c3cc(OCCN(C)C)ccc3C)c2)n1	0.33		
Cc1ccc(OCCN(C)C)cc1C(=O)N[C@H](C)c1cc(-c2cnn(CCN3CCOCC3)c2)cc(-c2cccs2)c1		0.06	
Cc1ccc(OCCN(C)C)cc1C(=O)N[C@H](C)c1cc(-c2ccccc2)cc(-c2ccccc2)c1	0.103		
Cc1ccc(OCCN(C)C)cc1C(=O)N[C@H](C)c1cc(-c2cnn(C)c2)cc(-c2cccs2)c1		0.15	
Cc1ccc(NC(=O)CNCC2CC2)cc1C(=O)N[C@H](C)c1cccc2ccccc12			IC50 [3]: 1.3 µM
Cc1ccc(NC(=O)C2CNCCN2)cc1C(=O)N[C@H](C)c1cccc2ccccc12 (mixture of isomers)			IC50 [3]: 1.5 µM
Cc1ccc(NCC2CN(C)CCN2)cc1C(=O)N[C@H](C)c1cccc2ccccc12 (mixture of isomers)			IC50 [3]: 1.5 µM
